The NIST ThermoML archive (doi:10.1021/je049671t)
± gives the expanded uncertainty stated by the source.

Assay: xn = mol fraction of the nth substance listed
Details: Liquid, Vibrating tube method

CC(C)C [2-methylpropane] + CCC
Details	mass density [kg/m3]
240 K, 398.2 kPa, x2 = 0.25	608.19 ± 0.26
240 K, 475.1 kPa, x2 = 0.25	608.27 ± 0.27
240 K, 529.1 kPa, x2 = 0.75	584.35 ± 0.27
240 K, 1000.1 kPa, x2 = 0.25	608.87 ± 0.27
240 K, 1024.1 kPa, x2 = 0.75	584.98 ± 0.28
240 K, 1473.4 kPa, x2 = 0.75	585.53 ± 0.28
240 K, 1505.9 kPa, x2 = 0.25	609.45 ± 0.27
240 K, 2000.7 kPa, x2 = 0.75	586.19 ± 0.29
240 K, 2004.5 kPa, x2 = 0.25	610.02 ± 0.28
240 K, 2531.8 kPa, x2 = 0.75	586.84 ± 0.29
240 K, 2533 kPa, x2 = 0.25	610.61 ± 0.28
240 K, 3006.4 kPa, x2 = 0.75	587.4 ± 0.3
240 K, 3028.4 kPa, x2 = 0.25	611.15 ± 0.29
240 K, 3537.9 kPa, x2 = 0.25	611.73 ± 0.29
240 K, 3545.4 kPa, x2 = 0.75	588.06 ± 0.3
240 K, 4012.9 kPa, x2 = 0.75	588.63 ± 0.31
240 K, 4027.7 kPa, x2 = 0.25	612.28 ± 0.3
240 K, 4515.3 kPa, x2 = 0.75	589.21 ± 0.31
240 K, 4519.1 kPa, x2 = 0.25	612.81 ± 0.3
240 K, 4996.8 kPa, x2 = 0.75	589.79 ± 0.32
240 K, 5030.4 kPa, x2 = 0.25	613.37 ± 0.31
240 K, 5496.4 kPa, x2 = 0.75	590.37 ± 0.32
240 K, 5533.4 kPa, x2 = 0.25	613.91 ± 0.31
240 K, 6009 kPa, x2 = 0.75	590.98 ± 0.33
240 K, 6033 kPa, x2 = 0.25	614.45 ± 0.32
240 K, 6541 kPa, x2 = 0.75	591.59 ± 0.33
240 K, 6541.5 kPa, x2 = 0.25	615 ± 0.32
240 K, 6969.5 kPa, x2 = 0.75	592.1 ± 0.34
240 K, 6987.7 kPa, x2 = 0.25	615.48 ± 0.33
250 K, 515.5 kPa, x2 = 0.499	584.94 ± 0.27
250 K, 1014.4 kPa, x2 = 0.499	585.61 ± 0.28
250 K, 1511.1 kPa, x2 = 0.499	586.26 ± 0.28
250 K, 2027.5 kPa, x2 = 0.499	586.95 ± 0.29
250 K, 2489.8 kPa, x2 = 0.499	587.55 ± 0.29
250 K, 3012.9 kPa, x2 = 0.499	588.23 ± 0.3
250 K, 3492.5 kPa, x2 = 0.499	588.84 ± 0.3
250 K, 3995.9 kPa, x2 = 0.499	589.47 ± 0.31
250 K, 4532.5 kPa, x2 = 0.499	590.12 ± 0.31
250 K, 5042.2 kPa, x2 = 0.499	590.74 ± 0.32
250 K, 5484.6 kPa, x2 = 0.499	591.29 ± 0.32
250 K, 5996.5 kPa, x2 = 0.499	591.9 ± 0.33
250 K, 6509.5 kPa, x2 = 0.499	592.48 ± 0.33
250 K, 6818.8 kPa, x2 = 0.499	592.84 ± 0.34
260 K, 251.9 kPa, x2 = 0.75	560.57 ± 0.27
260 K, 521.1 kPa, x2 = 0.25	586.55 ± 0.27
260 K, 527 kPa, x2 = 0.75	561.44 ± 0.28
260 K, 990.2 kPa, x2 = 0.25	587.2 ± 0.28
260 K, 1026.1 kPa, x2 = 0.75	562.22 ± 0.28
260 K, 1481.6 kPa, x2 = 0.25	587.88 ± 0.28
260 K, 1524.1 kPa, x2 = 0.75	563.04 ± 0.29
260 K, 2004.4 kPa, x2 = 0.25	588.63 ± 0.29
260 K, 2030.6 kPa, x2 = 0.75	563.8 ± 0.29
260 K, 2504.8 kPa, x2 = 0.25	589.32 ± 0.29
260 K, 2508.8 kPa, x2 = 0.75	564.52 ± 0.3
260 K, 2995 kPa, x2 = 0.25	589.98 ± 0.3
260 K, 3035.5 kPa, x2 = 0.75	565.31 ± 0.3
260 K, 3494.1 kPa, x2 = 0.75	566 ± 0.31
260 K, 3517.2 kPa, x2 = 0.25	590.65 ± 0.3
260 K, 3986.7 kPa, x2 = 0.25	591.2 ± 0.31
260 K, 4039.9 kPa, x2 = 0.75	566.81 ± 0.32
260 K, 4476.3 kPa, x2 = 0.25	591.87 ± 0.31
260 K, 4527.2 kPa, x2 = 0.75	567.5 ± 0.32
260 K, 4968.6 kPa, x2 = 0.75	568.07 ± 0.33
260 K, 4976.3 kPa, x2 = 0.25	592.53 ± 0.32
260 K, 5537.1 kPa, x2 = 0.75	568.72 ± 0.33
260 K, 5550.8 kPa, x2 = 0.25	593.3 ± 0.32
260 K, 6051.9 kPa, x2 = 0.25	593.96 ± 0.33
260 K, 6474.3 kPa, x2 = 0.25	594.47 ± 0.33
260 K, 6513.6 kPa, x2 = 0.75	570.1 ± 0.34
260 K, 6922.9 kPa, x2 = 0.75	570.57 ± 0.35
260 K, 7006.2 kPa, x2 = 0.25	595.15 ± 0.34
280 K, 467.2 kPa, x2 = 0.499	549.36 ± 0.28
280 K, 478.7 kPa, x2 = 0.75	535.35 ± 0.28
280 K, 500.3 kPa, x2 = 0.25	562.94 ± 0.28
280 K, 952.8 kPa, x2 = 0.499	550.3 ± 0.29
280 K, 990.6 kPa, x2 = 0.75	536.42 ± 0.29
280 K, 1004.7 kPa, x2 = 0.25	563.86 ± 0.28
280 K, 1462.8 kPa, x2 = 0.25	564.67 ± 0.29
280 K, 1514 kPa, x2 = 0.499	551.39 ± 0.29
280 K, 1517.2 kPa, x2 = 0.75	537.51 ± 0.3
280 K, 2007.8 kPa, x2 = 0.25	565.62 ± 0.29
280 K, 2007.8 kPa, x2 = 0.499	552.34 ± 0.3
280 K, 2029.6 kPa, x2 = 0.75	538.54 ± 0.3
280 K, 2489.1 kPa, x2 = 0.499	553.22 ± 0.3
280 K, 2510.3 kPa, x2 = 0.75	539.5 ± 0.31
280 K, 2513.6 kPa, x2 = 0.25	566.51 ± 0.3
280 K, 2999.1 kPa, x2 = 0.25	567.36 ± 0.3
280 K, 3019.4 kPa, x2 = 0.75	540.5 ± 0.31
280 K, 3022.9 kPa, x2 = 0.499	554.21 ± 0.31
280 K, 3488.8 kPa, x2 = 0.25	568.19 ± 0.31
280 K, 3519.6 kPa, x2 = 0.499	555.1 ± 0.31
280 K, 3522.3 kPa, x2 = 0.75	541.47 ± 0.32
280 K, 3992 kPa, x2 = 0.499	555.95 ± 0.32
280 K, 3992.4 kPa, x2 = 0.25	569.03 ± 0.31
280 K, 4026.3 kPa, x2 = 0.75	542.43 ± 0.32
280 K, 4516.8 kPa, x2 = 0.25	569.91 ± 0.32
280 K, 4518.6 kPa, x2 = 0.499	556.87 ± 0.33
280 K, 4544.4 kPa, x2 = 0.75	543.38 ± 0.33
280 K, 4965.2 kPa, x2 = 0.75	544.17 ± 0.34
280 K, 4979.1 kPa, x2 = 0.25	570.66 ± 0.33
280 K, 5014 kPa, x2 = 0.499	557.72 ± 0.33
280 K, 5482.8 kPa, x2 = 0.499	558.54 ± 0.34
280 K, 5485 kPa, x2 = 0.25	571.47 ± 0.33
280 K, 5530.9 kPa, x2 = 0.75	545.19 ± 0.34
280 K, 5989.4 kPa, x2 = 0.25	572.28 ± 0.34
280 K, 6012.9 kPa, x2 = 0.75	546.05 ± 0.35
280 K, 6027 kPa, x2 = 0.499	559.46 ± 0.34
280 K, 6488.2 kPa, x2 = 0.75	546.89 ± 0.35
280 K, 6525.9 kPa, x2 = 0.499	560.31 ± 0.35
280 K, 6532.5 kPa, x2 = 0.25	573.13 ± 0.34
280 K, 6931.1 kPa, x2 = 0.75	547.66 ± 0.36
280 K, 6938.9 kPa, x2 = 0.499	560.98 ± 0.35
280 K, 6965.6 kPa, x2 = 0.25	573.82 ± 0.35
280 K, 6968.2 kPa, x2 = 0.25	573.78 ± 0.35
300 K, 824.3 kPa, x2 = 0.75	507.35 ± 0.3
300 K, 996.8 kPa, x2 = 0.499	523.82 ± 0.29
300 K, 1001.6 kPa, x2 = 0.25	538.53 ± 0.29
300 K, 1503.7 kPa, x2 = 0.25	539.71 ± 0.29
300 K, 1519.6 kPa, x2 = 0.499	525.17 ± 0.3
300 K, 1534 kPa, x2 = 0.75	509.38 ± 0.3
300 K, 2006.6 kPa, x2 = 0.25	540.87 ± 0.3
300 K, 2026.1 kPa, x2 = 0.499	526.45 ± 0.31
300 K, 2028.3 kPa, x2 = 0.75	510.77 ± 0.31
300 K, 2493.2 kPa, x2 = 0.75	512.04 ± 0.32
300 K, 2510.6 kPa, x2 = 0.25	542.01 ± 0.31
300 K, 2530.4 kPa, x2 = 0.499	527.7 ± 0.31
300 K, 3014.6 kPa, x2 = 0.25	543.13 ± 0.31
300 K, 3028.7 kPa, x2 = 0.75	513.47 ± 0.32
300 K, 3043.4 kPa, x2 = 0.499	528.93 ± 0.32
300 K, 3486.8 kPa, x2 = 0.499	529.95 ± 0.32
300 K, 3488.8 kPa, x2 = 0.25	544.16 ± 0.32
300 K, 3519.2 kPa, x2 = 0.75	514.75 ± 0.33
300 K, 3995.5 kPa, x2 = 0.499	531.16 ± 0.33
300 K, 3996.7 kPa, x2 = 0.75	515.97 ± 0.33
300 K, 4012 kPa, x2 = 0.25	545.28 ± 0.32
300 K, 4467.1 kPa, x2 = 0.75	517.17 ± 0.34
300 K, 4483.4 kPa, x2 = 0.25	546.25 ± 0.33
300 K, 4503.6 kPa, x2 = 0.499	532.34 ± 0.34

mass density [kg/m3]
Details	240 K	250 K	260 K	280 K
x2 = 0.25	607.81 ± 0.26	–	585.98 ± 0.27	562.49 ± 0.27
x2 = 0.499	–	584.44 ± 0.27	–	549.15 ± 0.28
x2 = 0.75	583.82 ± 0.27	–	560.96 ± 0.27	535.32 ± 0.28
